# From ChEMBL document CHEMBL2331282, “9-[2-(R)-(Phosphonomethoxy)propyl]-2,6-diaminopurine (R)-PMPDAP and its prodrugs: optimized preparation, including identification of by-products formed, and antiviral evaluation in vitro” (Bioorg Med Chem, 2013)
# System: Vaccinia virus
# Assay: Antiviral activity against Vaccinia virus infected in human HEL cells assessed as reduction of virus-induced cytopathogenicity
# Type: functional, organism-based
# Conditions: Orthopoxvirus vaccinia
row,SMILES,EC50 [µg/mL]
1,C[C@@H](O)CNc1nc(N)c2ncn(C[C@@H](C)O)c2n1,> 100
2,C[C@@H](O)CNc1nc(N)nc2c1ncn2C[C@@H](C)O,> 100
3,C[C@H](Cn1cnc2c(NCP(=O)(O)O)nc(N)nc21)OCP(=O)(O)O,> 100
